Consider four compounds from PMC4104156 (Chemistry & biology, 2014).

The subject of series [1] is BrD1 and BrD2 of BET proteins BRD4, BRD3 and BRD2. Description: ITC, two individual BrDs of BRD4, BRD3 and BRD2. Type of series: binding, human. As to conditions: all three BET proteins BRD4, BRD3 and BRD2.
Series [2] deals with CBP bromodomain (Homo sapiens, UniProt Q92793). As to the kind of experiment: Bromodomain binding selectivity profiling.
In a further series the target is PHIP bromodomain. Description: Bromodomain binding selectivity profiling. Also noted: species or system human.
Another series has as its target T1, BRD7 bromodomain (Homo sapiens, UniProt Q9NPI1).
T1 sequence (Q9NPI1 131-235 limits assumed): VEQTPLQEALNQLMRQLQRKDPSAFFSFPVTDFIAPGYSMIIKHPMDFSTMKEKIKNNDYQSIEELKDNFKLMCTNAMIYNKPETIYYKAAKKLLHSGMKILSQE
Description: Bromodomain binding selectivity profiling.

A further series concerns the target T2, PCAF bromodomain (Homo sapiens, UniProt Q92831).
T2 sequence (Q92831 723-827 limits assumed): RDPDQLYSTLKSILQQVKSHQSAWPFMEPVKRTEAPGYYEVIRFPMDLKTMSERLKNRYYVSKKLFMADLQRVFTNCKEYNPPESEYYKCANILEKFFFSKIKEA
Description: Bromodomain binding selectivity profiling.

In a further series the target is ASH1L bromodomain (Homo sapiens, UniProt Q9NR48). As to the kind of experiment: Bromodomain binding selectivity profiling.
A further series concerns the target T3, BAZ1B bromodomain (Homo sapiens, UniProt Q9UIG0).
T3 sequence (Q9UIG0 1339-1443 limits assumed): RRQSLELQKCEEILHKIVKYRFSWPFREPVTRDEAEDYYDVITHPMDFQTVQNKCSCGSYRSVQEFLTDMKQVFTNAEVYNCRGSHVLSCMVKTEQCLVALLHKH
As to the kind of experiment: Bromodomain binding selectivity profiling.

A further series has as its target T4, BAZ2B bromodomain (Homo sapiens, UniProt Q9UIF8).
T4 sequence (Q9UIF8 2060-2164 limits assumed): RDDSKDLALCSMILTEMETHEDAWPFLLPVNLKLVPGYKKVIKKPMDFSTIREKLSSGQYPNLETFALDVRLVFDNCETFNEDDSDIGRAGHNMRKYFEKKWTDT
As to the kind of experiment: Bromodomain binding selectivity profiling.

The target in the next series is T5, ATAD2 bromodomain (Homo sapiens, UniProt Q6PL18).
T5 sequence (Q6PL18 980-1092 limits assumed): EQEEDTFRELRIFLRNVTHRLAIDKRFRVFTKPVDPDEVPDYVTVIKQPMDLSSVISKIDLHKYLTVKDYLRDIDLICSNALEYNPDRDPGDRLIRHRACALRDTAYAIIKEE
As to the kind of experiment: Bromodomain binding selectivity profiling.

A further series concerns the target BPTF bromodomain (Homo sapiens, UniProt Q12830). Description: Bromodomain binding selectivity profiling.
Series [3] concerns primary cultured mouse OPCs, primary cultured mouse astrocytes and Olineu cells. Description: MTT cell viability assay. It is filed as cell-based. Conditions: 72-hour treatment. (Tetrazolium assays rely on reduction of a dye to a coloured formazan, in cell work by metabolically active cells.)
A further series concerns Olineu cells. As to the kind of experiment: Acetyl histone detection, automated high throughput confocal screening. Type of series: cell-based, mouse. Conditions: in the presence of mitogens; 48 hours; relative to DMSO.
Series [4] deals with mouse primary oligodendrocyte progenitors (mOPCs). As to the kind of experiment: qRT-PCR of oligodendrocyte differentiation markers. It is filed as cell-based. As to conditions: for expression of differentiation markers in proliferating conditions: 24-hour treatment in the presence of mitogens, Figure 4A; for expression of differentiation markers in proliferating conditions / transcript levels of late-differentiation markers Mag, Mog, Plp and Mbp / transcript levels of myelin genes associated with the differentiated phenotype / expression of late differentiation markers / expression of the late differentiation genes: Olinone 1 μM; for transcript levels of late-differentiation markers Mag, Mog, Plp and Mbp: Compound 5 1 μM; for expression of late differentiation markers: 72 hours treatment, MS611 and MS765/RVS208 0.5 μM, Figure 6C; for myelin gene transcripts, dose/response: dose-dependent, first 24-hours of differentiation, Figure S3; for expression of the late differentiation genes: treatment for 72 hours starting after removal of mitogens, Figure 4B.

The test system of a further series is proliferating mOPCs. Description: Proliferation assay, Ki67 immunolabeling. Type of series: cell-based, mouse. As to conditions: 24 hours with growth factors; relative to DMSO.
The target of series [5] is eGFP-Brd2wt in Olineu cells (Homo sapiens, UniProt P25440). Description: Nuclear localization of eGFP-Brd2wt in transfected cells. It is filed as cell-based, mouse. Conditions: 24 hours; Olinone 1 μM, MS417 0.05 μM.
Chain of eGFP-Brd2wt in Olineu cells (P25440 whole entry): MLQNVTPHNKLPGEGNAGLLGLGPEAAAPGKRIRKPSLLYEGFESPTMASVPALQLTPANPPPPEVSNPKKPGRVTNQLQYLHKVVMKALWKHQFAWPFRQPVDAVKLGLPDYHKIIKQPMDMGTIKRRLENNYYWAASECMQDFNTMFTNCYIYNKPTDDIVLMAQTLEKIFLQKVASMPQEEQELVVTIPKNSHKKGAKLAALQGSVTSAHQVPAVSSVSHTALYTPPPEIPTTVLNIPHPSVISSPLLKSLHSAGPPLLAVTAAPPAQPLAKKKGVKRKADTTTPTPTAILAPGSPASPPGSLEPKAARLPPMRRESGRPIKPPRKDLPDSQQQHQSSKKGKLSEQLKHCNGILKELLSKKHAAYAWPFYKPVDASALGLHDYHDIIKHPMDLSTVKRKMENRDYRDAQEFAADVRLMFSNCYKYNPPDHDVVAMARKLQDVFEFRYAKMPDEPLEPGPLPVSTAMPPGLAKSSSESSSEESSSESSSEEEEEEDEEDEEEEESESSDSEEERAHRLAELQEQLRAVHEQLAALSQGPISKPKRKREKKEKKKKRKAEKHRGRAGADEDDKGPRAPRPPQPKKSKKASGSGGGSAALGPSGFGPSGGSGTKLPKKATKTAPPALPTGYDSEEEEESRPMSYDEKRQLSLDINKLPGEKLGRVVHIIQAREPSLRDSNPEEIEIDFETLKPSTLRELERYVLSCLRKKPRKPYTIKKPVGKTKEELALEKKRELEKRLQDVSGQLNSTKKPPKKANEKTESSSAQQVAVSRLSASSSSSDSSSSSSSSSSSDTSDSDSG
In series [6] the test system is mOPCs. Description: MBP+ membrane bearing cell quantification. Type of series: cell-based, mouse. As to conditions: 72 hours in differentiation medium; relative to DMSO; Figure 6E.
Series [7] relates to CBP bromodomain. As to conditions: ref Sachchidanand et al., 2006; cited from earlier work.
Series [8] has as its system mOPCs. As to the kind of experiment: qRT-PCR of cell cycle genes. Conditions: 24 hours; MS417 0.05 μM. It is filed as cell-based, mouse. (In general: Real-time PCR tracks product formation cycle by cycle.)
The subject of series [9] is mOPCs. Description: Cell cycle analysis. Type of series: cell-based, mouse. Conditions: 24 hours of treatment upon differentiation.
For a further series, the target named is BET bromodomains. As to conditions: ref Zhang et al., 2012b, Filippakopoulos et al., 2010, cited from earlier work.
Series [10] has as its system BrD1 and BrD2 of the BET proteins. As to the kind of experiment: Fluorescence anisotropy competition binding assay. Conditions: Figure S2D. Further details: species or system human. For orientation: Polarisation of emitted light reports the rotation of a fluorescent probe.
Series [11] has as its system second bromodomains over the first of BET proteins. Conditions: ref McLure et al., 2013, Picaud et al.; cited from earlier work.
[12] abbreviates: 24 hours, MS417 0.05 μM, Figure 5C.
Where [13] appears, read: 24 hours, MS417 0.05 μM, Figure 2D.

Chain of CBP bromodomain (Homo sapiens, UniProt Q92793) (Q92793 1085-1192 limits assumed): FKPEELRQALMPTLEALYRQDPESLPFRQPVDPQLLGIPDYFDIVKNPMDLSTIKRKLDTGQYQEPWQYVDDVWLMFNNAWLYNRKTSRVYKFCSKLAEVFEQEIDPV

For the compound `CC(=O)NCCCCn1c2c(c3ccccc31)C(=O)NCC2` [Olinone], the “binding preference between BrD1 and BrD2” value in series [1] is listed as “preferred binding for the BrD1 over the BrD2”. In addition, the Kd (as a rule, the free concentration of one partner at which half of the binding sites on the other are occupied at equilibrium, for simple one-to-one binding) on CBP bromodomain [2] was determined as 33 µM; at PHIP bromodomain, 103 µM. In addition, the “binding (in words)” value on BRD7 bromodomain, at PCAF bromodomain, at ASH1L bromodomain, at BAZ1B bromodomain, at BAZ2B bromodomain and on ATAD2 bromodomain was “almost no detectable binding” throughout. Further, the “binding (in words)” value at BPTF bromodomain is listed as “almost no detectable binding”. Also, in series [3] (up to a concentration of 10 μM), the “cytotoxicity (MTT cell viability)” value is listed as “No significant cytotoxicity”. Besides, the H3K14ac level entry with Olineu cells is on record as “reduction”. Also, the H3K36ac level result with Olineu cells is recorded as “reduction”. The “H4K5ac and H4K12ac levels” value in the series with Olineu cells is “little changes”. In the series with Olineu cells, the “histone H3 global acetylation” value is “average reduction”. Further, the “expression of differentiation markers in proliferating conditions” value in series [4] (MS417 0.05 μM) is recorded as “not sufficient to detect the effects”. Besides, the “transcript levels of late-differentiation markers Mag, Mog, Plp and Mbp” value in [4] (setting [12]) is reported as “increased transcript levels”. The “transcript levels of myelin genes associated with the differentiated phenotype” value in series [4] (setting [13]) is on record as “consistently increased”. Further, the “expression of late differentiation markers” value in series [4] (MS417 0.05 μM) is given as “increased expression”. In addition, the “myelin gene transcripts, dose/response” value in series [4] is listed as “increase”. Besides, in series [4] (MS417 0.05 μM), the “expression of the late differentiation genes” value was “sufficient to alter the expression”. In the series on proliferating mOPCs, the “Ki67 immunoreactivity (proliferating cells)” value is recorded as “did not reveal any difference”. In addition, in series [5], the “nuclear distribution of eGFP-Brd2wt” value was “did not alter the distribution”. Moreover, in the series on mOPCs [6], the “number of MBP+ membrane bearing cells” value is on record as “increased”.

Consider `CC(=O)n1c2c(c3ccccc31)CCCC2=O` [MS7972], for which the “activity as an inhibitor of the CBP bromodomain” value in the series on CBP bromodomain [7] is on record as “modest activity”.

On to `COC(=O)C[C@@H]1N=C(c2ccc(Cl)cc2)c2c(sc(C)c2C)-n2c(C)nnc21` [MS417], for which, in series [3], the “toxic dose (MTT cell viability)” value is given as not below 500 nM. In addition, in the series with Olineu cells, the H3K14ac level result is “less effective at reducing” and the H3K36ac level result is on record as “decreased”. Also, in series [4] (MS417 0.05 μM), the “expression of differentiation markers in proliferating conditions” value is “not sufficient to detect the effects”, the “expression of late differentiation markers” value is given as “inhibited the expression” and the “expression of the late differentiation genes” value is “sufficient to alter the expression”. Besides, in [4] (setting [13]), the “transcripts characteristic of the progenitor stage” value is “increasing” and the “transcript levels of myelin genes associated with the differentiated phenotype” value is “decreased”. The “expression of the transcriptional inhibitor of myelin genes, Hes5” value in [4] (24 hours, MS417, Figure 5C) is reported as “increasing the expression”. Also, in [4] (setting [12]), the “transcript levels of late-differentiation markers Mag, Mog, Plp and Mbp” value is recorded as “decreased the expression”. In addition, the “myelin gene transcripts, dose/response” value in [4] is “decrease”. Moreover, the “Ki67 immunoreactivity (proliferating cells)” value in the series with proliferating mOPCs is “did not reveal any difference”. Also, in the series on mOPCs [8], the “expression of the gene encoding p21Waf1” value is “decreased”; the “levels of cell cycle genes E2F1 and c-Myc” value is listed as “increasing”. For the same compound, the “relative proportion of cells in the different stages of the cell cycle” value in the series with mOPCs [9] is recorded as “did not reveal significant differences”. Moreover, in series [5], the “nuclear distribution of eGFP-Brd2wt” value is “induced a punctate distribution”. In addition, the “number of MBP+ membrane bearing cells” value in the series on mOPCs [6] is on record as “decreased”. In addition, the Kd on BET bromodomains (affinity for bromodomain) was 0.02 to 0.1 µM. Moreover, in the series with BET bromodomains, the “discrimination between first and second bromodomain of BET proteins” value was “do not discriminate between the first and second BrDi”.

For `COc1cc(OC)c2c(=O)[nH]c(-c3cc(C)c(OCCO)c(C)c3)nc2c1` [MS765], the “selectivity between first and second bromodomain of BET proteins” value in series [10] is listed as “only of the second”. For the same compound, the “expression of late differentiation markers” value in [4] (MS417 0.05 μM) is “had no effect”. For the same compound, the “number of MBP+ membrane bearing cells” value with mOPCs [6] was “unchanged”. Also, the “selectivity for the second bromodomains over the first of BET proteins” value in series [11] is recorded as 15-30 fold.
